Assay results published in article PMC3526545, “New perspectives for natural antimicrobial peptides: application as antinflammatory drugs in a murine model” (BMC Immunology, 2012).
Values joined by “and” are separate entries in the source; they are usually repeats but may differ in a detail not shown here. Equal entries are not always repeated.

Columns and labels:
[1] = test system: SAA, haptoglobin, fibrinogen; assay: Acute phase proteins in blood of infected mice; format: in vivo, mouse
[2] = test system: J774 cells; assay: TNF-α, IFN-γ, IL-10 mRNA expression in J774 cells (real time PCR); format: cell-based, mouse; details: gentamicin 5 μg/ml, ASA 5 μg/ml or MIX (RJI-C 9 μg/ml + TB-KK 6 μg/ml) for 3 hours; Figure 3B
[3] = test system: COX-2; details: mouse, in vivo
[4] = test system: Staphylococcus epidermidis (SE); details: mouse, in vivo, iv
[5] = test system: CD64; details: mouse, in vivo
[6] = test system: Staphylococcus epidermidis (SE); details: mouse, in vivo, iv; remark: listed apart in the source
[7] = test system: probiotics bacteria (Lactobacillus plantarum, Lactobacillus Paracasei, Bifidobacterium animalis); assay: Antibacterial activity against probiotics bacteria, overall statement; format: cell-based; details: MIX RJI-C 9 μg/ml + TB-KK 6 μg/ml; gentamicin 5 μg/ml
Experimental: The growth inhibition percentages of Staphylococcus epidermidis and probiotic strains were assessed under the same conditions.

[8] = test system: Staphylococcus epidermidis strains; assay: Antibacterial activity of AMPs (MIC100) and synergism (FIC index); format: cell-based; details: against Staphylococcus epidermidis strains, single agent
Experimental: (§1) Antibacterial activity of the peptides used in this work was evaluated as described previously. […] The fractional inhibitory concentration (FIC) index for combinations of two peptides was calculated according to the equation: FIC index = […] = A/MICA + B/MICB , where A and B are the MICs of drug A and drug B in the combination, MICA and MICB are the MICs of drug A and drug B alone, and FICA and FICB are the FICs of drug A and drug B. The FIC indices were interpreted as follows: ≤0.5, synergy; 0.51-4.0, no interaction; > 4.0, antagonism.

[9] = test system: Staphylococcus epidermidis strains; assay: Antibiotic susceptibility, disk diffusion method on Mueller-Hinton agar; format: cell-based; details: all 10 Staphylococcus epidermidis strains
[10] = test system: J774 cells; assay: Nitrite (NO2-) formation in J774 cells, Griess reaction; format: cell-based, mouse
[11] = test system: Staphylococcus epidermidis strains; assay: % inhibition of bacterial growth by the MIX and its components; format: cell-based; details: MIX = both
Experimental: as §1, with “antagonism. The growth inhibition percentages of Staphylococcus epidermidis and probiotic strains were assessed under the same conditions.” for “antagonism.”

CNC(C)C1CCC(N)C(OC2C(N)CC(N)C(OC3OCC(C)(O)C(NC)C3O)C2O)O1 (stereo not drawn) [Gentamicin, gentamicin]
SAA ([1]; 3h after treatment, blood of mice infected with Staphylococcus epidermidis, naive 6±0.8, control 17±0.6): 20 ± 0.8 mg/dL
SAA ([1]; 6h after treatment, control 19.1±0.5): 18.4 ± 1.2 mg/dL
Haptoglobin ([1]; 6h after treatment, control 329±55.2): 264 ± 58.3 mg/dL
SAA ([1]; 9h after treatment, control 21.7±0.9): 16 ± 0.7 mg/dL
Fibrinogen ([1]; mouse, in vivo): 340 ± 41.0 mg/dL and 385 ± 45.2 mg/dL and 364 ± 12.6 mg/dL
Haptoglobin ([1]; mouse, in vivo): 244 ± 42.5 mg/dL and 278 ± 42.9 mg/dL
SAA, haptoglobin and fibrinogen, in words ([1]; mouse, in vivo): within normal ranges
induction of inflammation (TNF-α, IFN-γ, IL-10 mRNA) in J774 cells without LPS [2]: do not induce inflammation
COX-2 expression level in kidney [3]: COX-2 expression level returned to the normal level nine hours after the treatment
bacterial load of kidneys and spleens [4]: decreased
expression of the CD64 marker in blood [5]: decreased expression of the CD64 marker
infection status of kidneys and spleens eleven days after the infection [6]: still infected
antibacterial activity against probiotics bacteria, in words [7]: killed the totality of the probiotics tested
MIC ([8]; 10^5 CFU/well): 5 µg/mL
MIC ([8]; value in brackets): 10 µM

C[C@@H](O)[C@H]1C(=O)N2C(C(=O)O)=C(SCCN=CN)C[C@H]12 [IPM10, imipenem]
antibiotic resistance pattern, all strains [9]: sensitive

Cc1ncc([N+](=O)[O-])n1CCO [M80, metronidazole]
antibiotic resistance pattern, all strains [9]: resistant

Cc1onc(-c2ccccc2Cl)c1C(=O)N[C@@H]1C(=O)N2[C@@H]1SC(C)(C)[C@@H]2C(=O)O [CX1, cloxacillin]
antibiotic resistance pattern, all strains [9]: resistant

bacitracin [B2]
antibiotic resistance pattern, all strains [9]: resistant

CC(=O)Oc1ccccc1C(=O)O [ASA, acetylsalicylic acid]
induction of inflammation (TNF-α, IFN-γ, IL-10 mRNA) in J774 cells without LPS [2]: do not induce inflammation

PFKIDIHLGGY-NH2 [RJI-C, analogue of the royal jellein I, chemically modified at the C terminal]
NO2- synthesis in LPS-stimulated J774 cells, in words [10]: reduced NO2^- synthesis
MIC100 ([8]; 10^5 CFU/well): 30 µg/mL
MIC ([8]; value in brackets): 24 µM
% inhibition of bacterial growth ([11]; strain 2/2, RJI-C 9 μg/ml, TB-KK 6 μg/ml): 18 ± 1%
% inhibition of bacterial growth ([11]; strain 3/28, RJI-C 9 μg/ml (7.3 μM), TB-KK 6 μg/ml (2.6 μM)): 17 ± 2%
% inhibition of bacterial growth ([11]; strain 5/6, RJI-C 9 μg/ml, TB-KK 6 μg/ml): 4 ± 3%
% inhibition of bacterial growth ([11]; strain 5/8, RJI-C 9 μg/ml, TB-KK 6 μg/ml): 12 ± 2%
% inhibition of bacterial growth ([11]; strain 5/25, RJI-C 9 μg/ml, TB-KK 6 μg/ml): 15 ± 1%
% inhibition of bacterial growth ([11]; strain 9/1, RJI-C 9 μg/ml, TB-KK 6 μg/ml): 18 ± 0%
% inhibition of bacterial growth ([11]; strain 10/28, RJI-C 9 μg/ml, TB-KK 6 μg/ml): 0%
% inhibition of bacterial growth ([11]; strain 12/14, RJI-C 9 μg/ml, TB-KK 6 μg/ml): 11 ± 0.5%
% inhibition of bacterial growth ([11]; strain 12/26, RJI-C 9 μg/ml, TB-KK 6 μg/ml): 19 ± 2%

C[C@H]1[C@H](NC(=O)/C(=N\OC(C)(C)C(=O)O)c2csc(N)n2)C(=O)N1S(=O)(=O)O [ATM30, aztreonam]
antibiotic resistance pattern, all strains [9]: resistant
